According to PubChem BioAssay AID504860 (Southern Research Specialized Biocontainment Screening …, 2011):
pIC50: −log10 of the molar value. The source made the active and inactive calls. No rule for the calls is given here.

How the values were obtained:
[1] = confirmation, H37Rv, purified and synthesized compounds, set 4 (AID 504860); details: M. tuberculosis H37Rv growth inhibition, glycerol-free medium; at 100 µM (top of the series)
[2] = tested on: M. tuberculosis H37Rv growth inhibition, glycerol-free medium; test: as above; details: for pIC50: measured here: growth inhibition IC50

Structure (SMILES)	inhibition [1]	IC90 [2] [µM]	pIC50 [2]
CN1CCC(NC(=O)CSc2nc3ccccc3c(=O)[nH]2)CC1	8.01% (inactive)	–	–
CNC(=O)CSc1nc2ccccc2c(=O)[nH]1	–	99.1	< 4.16
CC(Sc1nc2ccccc2c(=O)[nH]1)C(=O)NC1CCCCC1 (stereo not drawn)	6.58% (inactive)	–	–
CN(C)C(=O)CSc1nc2ccccc2c(=O)[nH]1	9.4% (inactive)	–	–
CC[N+](C)(CC)CCCCOc1ccc2c(c1)C(=O)c1cc(OCCCC[N+](C)(CC)CC)ccc1-2	–	3.06	5.67
CCC(Sc1nc2c(c(=O)[nH]1)CCC2)C(=O)Nc1cccc(OC)c1 (stereo not drawn)	-0.78% (inactive)	–	–
CC(C)CCNC(=O)CSc1nc2ccccc2c(=O)[nH]1	–	0.21	> 8.00
O=C(CSc1nccc(=O)[nH]1)NC1CCCCC1	7.67% (inactive)	–	–
O=C(CSc1nc2ccccc2c(=O)[nH]1)N1CCOCC1	11.1% (inactive)	–	–
COc1cccc(NC(=O)CSc2nc3c(c(=O)[nH]2)CCC3)c1	-4.12% (inactive)	–	–
Cc1nc(SCC(N)=O)[nH]c(=O)c1C	4.67% (inactive)	–	–
O=C(CSc1nc2ccccc2c(=O)[nH]1)NC1CCCCC1	–	0.52	6.51
Cc1c[nH]c(=S)[nH]c1=O	2.03% (inactive)	–	–
Nc1c(C(=O)NC2CCCCC2)nsc1C(=O)OCC(=O)NC1CCCCC1	–	8.13	5.37
O=C(CSc1nc2ccccc2c(=O)[nH]1)NCc1ccc(Cl)cc1	–	1.58	5.97
O=c1[nH]c(SCc2ccccc2Cl)nc2c1CCCC2	9.5% (inactive)	–	–
CCOC(=O)CSc1nc(C)c(C)c(=O)[nH]1	8.77% (inactive)	–	–
Cn1c(SCC(=O)NC2CCCCC2)nc2ccccc2c1=O	6.07% (inactive)	–	–
Cc1cccc(-c2oc3ccc(-c4ccc5c(c4)OCO5)cc3c2C#Cc2cncn2C)c1	–	3.08	5.60
Cc1cc(=O)[nH]c(SCC(=O)NC2CCCCC2)n1	-0.61% (inactive)	–	–

Structure (SMILES)	inhibition [1]	IC90 [2] [µM]	pIC50 [2]
CN(C(=O)CSc1nc2ccccc2c(=O)[nH]1)C1CCCCC1	9.68% (inactive)	–	–
CCOc1ccc(-c2cc(C)[n+](CCc3ccc(OC)c(OC)c3)c(-c3ccc(OCC)cc3)c2)cc1	–	1.63	6.00
CCSc1nc(C)c(C)c(=O)[nH]1	2.48% (inactive)	–	–
Cc1nc(SCC(=O)NCCC(C)C)[nH]c(=O)c1C	–	13.3	5.06
CCC(Sc1nc2ccccc2c(=O)[nH]1)C(=O)Nc1cccc(OC)c1 (stereo not drawn)	14.3% (inactive)	–	–
Cc1ccc(NC(=O)COC(=O)CCc2c[nH]c3ccccc23)cc1[N+](=O)[O-]	–	7.41	5.49
Cc1nc(SCC(=O)NC2CCCC2)[nH]c(=O)c1C	–	15.6	5.04
Cc1cc(Br)ccc1NC(=O)c1cnc(N2CCN(c3ccccn3)CC2)c2ccccc12	–	–	4.94
O=C(CSc1ncccn1)NC1CCCCC1	0.1% (inactive)	–	–
Cc1[nH]c2ccccc2c1C(=O)COC(=O)c1ccc([N+](=O)[O-])s1	–	5.21	5.60
COc1cccc(NC(=O)CSc2nc3ccccc3c(=O)[nH]2)c1	4.59% (inactive)	–	–
Cc1ccc(C(=O)N/N=C(/CC(=O)c2cccs2)C(F)(F)F)cc1	–	2.83	5.88
COc1ccc(NC(=O)CSc2nc3ccccc3c(=O)[nH]2)cc1	11.4% (inactive)	–	–
CCOC1OC(=O)C(Cl)=C1Nc1ccccc1C (stereo not drawn)	–	9.47	5.49
O=C(CSc1nc2ccccc2c(=O)[nH]1)NC1CCCC1	–	0.85	6.37
CC1CCN(C(=O)C2CCN(c3nnc(-n4cccc4)s3)CC2)CC1	–	7.33	5.49
O=C(CSc1nc2c(c(=O)[nH]1)CCCC2)NC1CCCCC1	–	< 0.01	> 8.00
Cc1cccc(/C=C/C(=O)c2ccc([N+](=O)[O-])o2)c1	–	2.22	5.84
Cc1nc(SCC(=O)N(C)c2ccccc2)[nH]c(=O)c1C	6.73% (inactive)	–	–
COC(=O)c1ccc(CNc2c(N3CCCC3)c(=O)c2=O)cc1	4.83% (inactive)	–	–

Structure (SMILES)	inhibition [1]	IC90 [2] [µM]	pIC50 [2]
CC(C)CCNC(=O)CSc1nc2c(c(=O)[nH]1)CCC2	–	2.69	5.77
Cc1cc(=O)[nH]c(=S)[nH]1	-3.23% (inactive)	–	–
CC(C)NC(=O)CSc1nc2ccccc2c(=O)[nH]1	–	19.3	4.94
Cc1nc(SCc2ccccc2Cl)[nH]c(=O)c1C	6.97% (inactive)	–	–
CCSc1nc2ccccc2c(=O)[nH]1	10.8% (inactive)	–	–
Cc1[nH]c(=S)[nH]c(=O)c1C	6.28% (inactive)	–	–
Cc1ccc(NC(=O)CSc2nc3ccccc3c(=O)[nH]2)cc1Cl	7.6% (inactive)	–	–
COC(=O)C(Nc1nc(SCC(=O)NC2CCCCC2)nc2ccccc12)c1ccccc1 (stereo not drawn)	5.93% (inactive)	–	–
Cc1cnc(SCC(=O)NC2CCCCC2)[nH]c1=O	3.92% (inactive)	–	–
O=C(CSc1nc2c(c(=O)[nH]1)CCC2)NC1CCCCC1	–	< 0.01	> 8.00
Cc1cc(C)n2nc(N)c(N=Nc3ccccc3)c2n1	–	6.75	5.35
CCC(Sc1nc2ccccc2c(=O)[nH]1)C(=O)NC1CCCCC1 (stereo not drawn)	3.23% (inactive)	–	–
c1ccc(/N=C2\N=C(Nc3ccccn3)c3ccccc32)nc1	–	2.46	5.77
O=C(CSc1ccccn1)NC1CCCCC1	6.13% (inactive)	–	–
COC(=O)C(C)Oc1ccc(Cc2ncc(C(F)(F)F)cc2Cl)cc1 (stereo not drawn)	–	5.63	5.44
NC(=O)CSc1nc2ccccc2c(=O)[nH]1	10.4% (inactive)	–	–
Nc1cc(=O)[nH]c(SCC(=O)NC2CCCCC2)n1	-0.72% (inactive)	–	–
O=c1[nH]c(=S)[nH]c2ccccc12	2.16% (inactive)	–	–
CC1CCN(C(=O)CSc2nc3ccccc3c(=O)[nH]2)CC1	8.81% (inactive)	–	–
